Results: ChEMBL document CHEMBL1938264, “Novel 3,4-isoxazolediamides as potent inhibitors of chaperone heat shock protein 90” (J Med Chem, 2011)
pIC50: −log10 of the molar value.

Tests used:
NCI-H460 = test: Cytotoxicity against human NCI-H460 after 72 hrs by sulforhodamine B assay; type: functional, cell-based; conditions: NCI-H460, 72 h
[1] = target: Heat shock protein HSP 90-beta (Homo sapiens, UniProt P08238); test: Binding affinity to Hsp90 after 4 hrs by fluorescence polarization assay
[2] = Toxicity in human A431 cells xenografted ip dosed CD1 Harlan mouse; type: organism-based, A-431; conditions: in vivo
A-431 = test: Antitumor activity against human A431 cells xenografted in CD1 Harlan mouse assessed as tumor volume inhibition at 60 mg/kg, ip qd administered for 5 days; type: functional; conditions: A-431, ip, 120 h, route intraperitoneal
Mus musculus = test: Toxicity in human A431 cells xenografted CD1 Harlan mouse assessed as body weight loss at 60 mg/kg, ip qd administered for 5 days; type: organism-based, A-431; design: dose 60 mg/kg, route intraperitoneal; conditions: in vivo, 120 h

Sequence of Heat shock protein HSP 90-beta (P08238 whole entry): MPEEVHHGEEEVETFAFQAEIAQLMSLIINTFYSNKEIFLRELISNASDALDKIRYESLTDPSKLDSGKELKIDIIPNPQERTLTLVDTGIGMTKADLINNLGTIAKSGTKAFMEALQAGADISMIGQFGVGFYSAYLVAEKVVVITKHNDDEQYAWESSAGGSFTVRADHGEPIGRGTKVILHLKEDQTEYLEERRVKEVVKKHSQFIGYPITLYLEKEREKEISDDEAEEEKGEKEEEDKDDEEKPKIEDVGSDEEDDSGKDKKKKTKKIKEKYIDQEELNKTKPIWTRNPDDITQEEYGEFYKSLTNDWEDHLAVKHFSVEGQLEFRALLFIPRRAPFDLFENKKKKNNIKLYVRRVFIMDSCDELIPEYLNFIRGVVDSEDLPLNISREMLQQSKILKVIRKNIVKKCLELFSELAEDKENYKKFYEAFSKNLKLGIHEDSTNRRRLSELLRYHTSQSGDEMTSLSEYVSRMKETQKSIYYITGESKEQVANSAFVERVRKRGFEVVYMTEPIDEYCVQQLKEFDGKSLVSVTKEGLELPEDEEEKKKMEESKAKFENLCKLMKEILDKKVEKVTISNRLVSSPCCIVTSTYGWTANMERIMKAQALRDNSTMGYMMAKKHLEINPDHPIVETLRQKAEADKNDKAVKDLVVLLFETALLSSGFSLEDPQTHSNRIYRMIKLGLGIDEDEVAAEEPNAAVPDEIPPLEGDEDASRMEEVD

pIC50 [1] | Compound | pIC50 (NCI-H460) | MTD [2] [mg/kg] | inhibition in vivo at 60 mg/kg (A-431) [%] | Activity (Mus musculus) [%]
7.70 | CCNC(=O)c1noc(-c2cc(C(C)C)c(O)cc2O)c1NC(=O)c1ccc2ccsc2c1 | 6.74 |  |  | 
6.67 | CCNC(=O)c1noc(-c2cc(C(C)C)c(O)cc2O)c1NC(=O)CCN1CCOCC1 | 6.96 |  |  | 
> 8.30 | CCNC(=O)c1noc(-c2cc(C(C)C)c(O)cc2O)c1NC(=O)c1ccco1 | 7.66 |  |  | 
6.37 | CCNC(=O)c1noc(-c2cc(Cl)c(O)cc2O)c1NCc1ccc(OC)cc1 | < 6.00 |  |  | 
6.59 | CCCCC[C@H]1CC[C@H](C(=O)Nc2c(C(=O)NCC)noc2-c2cc(C(C)C)c(O)cc2O)CC1 | < 6.00 |  |  | 
7.13 | CCNC(=O)c1noc(-c2cc(Cl)c(O)cc2O)c1NC(=O)c1sccc1C | 6.39 |  |  | 
< 4.00 | COc1ccc(C(=O)Nc2c(C(=O)N3CC(F)(F)C3)noc2-c2cc(Cl)c(O)cc2O)cc1 | < 6.00 |  |  | 
> 8.30 | CCNC(=O)c1noc(-c2cc(C(C)C)c(O)cc2O)c1NC(=O)[C@H]1CC[C@@H](C(N)=O)CC1 | 6.00 |  |  | 
> 8.30 | CCNC(=O)c1noc(-c2cc(C(C)C)c(O)cc2O)c1NC(=O)c1ccc(C)o1 | 7.80 |  |  | 
> 8.30 | CCNC(=O)c1noc(-c2cc(C(C)C)c(O)cc2O)c1NC(=O)[C@@H]1CC[C@H](C(=O)OC)C1 | 7.66 |  |  | 
7.26 | CCNC(=O)c1noc(-c2cc(C(C)C)c(O)cc2O)c1NC(C)=O | 7.09 |  |  | 
7.66 | CCNC(=O)c1noc(-c2cc(C(C)C)c(O)cc2O)c1NC(=O)c1ccc(N2CCCC2)cc1 | 6.09 |  |  | 
> 8.30 | CCNC(=O)c1noc(-c2cc(C(C)C)c(O)cc2O)c1NC(=O)C1CCNCC1 | < 6.00 |  |  | 
> 8.30 | CCNC(=O)c1noc(-c2cc(C(C)C)c(O)cc2O)c1NC(=O)[C@H]1CC[C@H](OC(=O)CN)CC1 | < 6.00 |  |  | 
> 8.30 | CCNC(=O)c1noc(-c2cc(C(C)C)c(O)cc2O)c1NC(=O)[C@H]1CC[C@H](CNS(=O)(=O)c2ccccc2)CC1 | < 6.00 |  |  | 
8.27 | CCNC(=O)c1noc(-c2cc(C(C)C)c(O)cc2O)c1NC(=O)[C@H]1CC[C@H](CNS(=O)(=O)c2ccc(F)cc2)CC1 | 6.19 |  |  | 
7.48 | CCNC(=O)c1noc(-c2cc(C(C)C)c(O)cc2O)c1NC(=O)c1ccc2cc[nH]c2c1 | 6.77 |  |  | 
> 8.30 | CCNC(=O)c1noc(-c2cc(C(C)C)c(O)cc2O)c1NC(=O)[C@H]1CC[C@H](N2CCOCC2)CC1 | 6.17 |  |  | 
7.41 | CCNC(=O)c1noc(-c2cc(C(C)C)c(O)cc2O)c1NC(=O)[C@@H]1CC[C@H](C(=O)O)C1 | < 6.00 |  |  | 
 | CCNC(=O)c1noc(-c2cc(C(C)C)c(O)cc2O)c1-c1ccc(CN2CCOCC2)cc1 [LUMINESPIB] | 8.62 | 60 | 48 | 8
6.80 | COc1ccc(C(=O)Nc2c(C(=O)NCC(F)(F)F)noc2-c2cc(Cl)c(O)cc2O)cc1 | < 6.00 |  |  | 
8.06 | CCNC(=O)c1noc(-c2cc(C(C)C)c(O)cc2O)c1NC(=O)[C@H]1CC[C@H](CN2CCOCC2)CC1 | 6.89 |  |  | 
7.49 | CCNC(=O)c1noc(-c2cc(C(C)C)c(O)cc2O)c1NC(=O)c1ccc(N2CCNCC2)cc1 | < 6.00 |  |  | 
6.62 | CCNC(=O)c1noc(-c2cc(C(C)C)c(O)cc2O)c1NC(=O)C1CCC(C(F)(F)F)CC1 (configuration not stated) | 7.38 |  |  | 

pIC50 [1] | Compound | pIC50 (NCI-H460) | MTD [2] [mg/kg] | inhibition in vivo at 60 mg/kg (A-431) [%] | Activity (Mus musculus) [%]
8.00 | CCNC(=O)c1noc(-c2cc(C(C)C)c(O)cc2O)c1NC(=O)c1sc(C)nc1C | 6.25 |  |  | 
6.78 | C=CC(=O)Nc1c(C(=O)NCC)noc1-c1cc(Cl)c(O)cc1O | < 6.00 |  |  | 
7.43 | CCNC(=O)c1noc(-c2cc(Cl)c(O)cc2O)c1NC(C)=O | < 6.00 |  |  | 
7.55 | CCNC(=O)c1noc(-c2cc(C(C)C)c(O)cc2O)c1NC(=O)[C@H]1CC[C@H](N)CC1 | < 6.00 |  |  | 
7.66 | CCNC(=O)c1noc(-c2cc(C(C)C)c(O)cc2O)c1NC(=O)c1ccc(Br)o1 | 7.72 |  |  | 
6.74 | CCNC(=O)c1noc(-c2cc(Cl)c(O)cc2O)c1NC(=O)c1ccc(OC)cc1 | < 6.00 |  |  | 
6.21 | CCNC(=O)c1noc(-c2cc(Cl)c(O)cc2O)c1NC1CCCCC1 | < 6.00 |  |  | 
7.82 | CCNC(=O)c1noc(-c2cc(C(C)C)c(O)cc2O)c1NC(=O)c1ccc2ncoc2c1 | 6.96 |  |  | 
7.85 | CCNC(=O)c1noc(-c2cc(C(C)C)c(O)cc2O)c1NC(=O)C1CC(O)C1 (configuration not stated) | 6.04 |  |  | 
7.47 | CCNC(=O)c1noc(-c2cc(C(C)C)c(O)cc2O)c1NC(=O)c1ccc(N(C)C)cc1 | 6.62 |  |  | 
6.59 | CCNC(=O)c1noc(-c2cc(C(C)C)c(O)cc2O)c1NC(=O)c1oc2ccccc2c1C | < 6.00 |  |  | 
6.89 | CCNC(=O)c1noc(-c2cc(Cl)c(O)cc2O)c1NC(=O)c1cc(OC)c(OC)c(OC)c1 | < 6.00 |  |  | 
6.60 | CCNC(=O)c1noc(-c2cc(C(C)C)c(O)cc2O)c1NC(=O)c1cc(-c2ccccc2)on1 | < 6.00 |  |  | 
7.72 | CCNC(=O)c1noc(-c2cc(C(C)C)c(O)cc2O)c1NC(=O)c1cc(C(C)=O)on1 | 7.09 |  |  | 
6.60 | CCNC(=O)c1noc(-c2cc(Cl)c(O)cc2O)c1NC(=O)C12CC3CC(CC(C3)C1)C2 | 6.12 |  |  | 
7.47 | CCNC(=O)c1noc(-c2cc(C(C)C)c(O)cc2O)c1NC(=O)c1ccc(OC)c(F)c1 | 7.26 |  |  | 
7.40 | CCNC(=O)c1noc(-c2cc(C(C)C)c(O)cc2O)c1NC(=O)[C@H]1CC[C@H](CN)CC1 | < 6.00 |  |  | 
6.82 | CCNC(=O)c1noc(-c2cc(Cl)c(O)cc2O)c1NC(=O)c1ccc(Br)cc1 | < 6.00 |  |  | 
7.32 | CCNC(=O)c1noc(-c2cc(C(C)C)c(O)cc2O)c1NC(=O)c1oc2ccc(OC)cc2c1C | 6.12 |  |  | 
7.21 | CCNC(=O)c1noc(-c2cc(C(C)C)c(O)cc2O)c1NC(=O)c1cc2ccccc2n1C | 6.44 |  |  | 
6.64 | CCNC(=O)c1noc(-c2cc(Cl)c(O)cc2O)c1NCc1sccc1C | < 6.00 |  |  | 
7.62 | CCNC(=O)c1noc(-c2cc(C(C)C)c(O)cc2O)c1NC(=O)C1CCN(C)CC1 | < 6.00 |  |  | 
7.92 | CCNC(=O)c1noc(-c2cc(C(C)C)c(O)cc2O)c1NC(=O)[C@@H]1CC[C@H](CN2CCOCC2)C1 (relative stereo) | 6.77 |  |  | 
7.62 | CCNC(=O)c1noc(-c2cc(C(C)C)c(O)cc2O)c1NC(=O)c1ccc(N2CCN(C)CC2)cc1 | < 6.00 |  |  | 

pIC50 [1] | Compound | pIC50 (NCI-H460) | MTD [2] [mg/kg] | inhibition in vivo at 60 mg/kg (A-431) [%] | Activity (Mus musculus) [%]
7.47 | CCNC(=O)c1noc(-c2cc(C(C)C)c(O)cc2O)c1NC(=O)c1ccc2ccn(C)c2c1 | 7.06 |  |  | 
7.90 | CCNC(=O)c1noc(-c2cc(C(C)C)c(O)cc2O)c1NC(=O)[C@@H]1CC[C@H](CO)C1 (relative stereo) | < 6.59 |  |  | 
> 8.30 | CCNC(=O)c1noc(-c2cc(C(C)C)c(O)cc2O)c1NC(=O)[C@H]1CC[C@H](O)CC1 | < 6.00 |  |  | 
7.52 | CCNC(=O)c1noc(-c2cc(C(C)C)c(O)cc2O)c1NC(=O)C1CCC(C(C)(C)C)CC1 (configuration not stated) | 6.70 |  |  | 
7.82 | CCNC(=O)c1noc(-c2cc(C(C)C)c(O)cc2O)c1NC(=O)[C@H]1CC[C@@H](CO)CC1 | 6.06 |  |  | 
8.07 | CCNC(=O)c1noc(-c2cc(C(C)C)c(O)cc2O)c1NC(=O)[C@H]1CC[C@H](CNC)CC1 | < 6.00 |  |  | 
8.13 | CCNC(=O)c1noc(-c2cc(C(C)C)c(O)cc2O)c1NC(=O)[C@H]1CC[C@@H](N2CCOCC2)CC1 | 6.21 |  |  | 
6.79 | CCNC(=O)c1noc(-c2cc(Cl)c(O)cc2O)c1NC(=O)c1ccc(OC)c(OC)c1 | < 6.00 |  |  | 
7.71 | CCNC(=O)c1noc(-c2cc(C(C)C)c(O)cc2O)c1NC(=O)[C@H]1CC[C@@H](CN2CCOCC2)CC1 | 6.85 |  |  | 
7.40 | CCNC(=O)c1noc(-c2cc(C(C)C)c(O)cc2O)c1NC(=O)c1nc(C)c(-c2ccc(F)cc2)s1 | < 6.00 |  |  | 
> 8.30 | CCNC(=O)c1noc(-c2cc(C(C)C)c(O)cc2O)c1NC(=O)[C@H]1CC[C@H](CO)CC1 | 6.22 |  |  | 
7.44 | CCNC(=O)c1noc(-c2cc(C(C)C)c(O)cc2O)c1NC(=O)c1cccc2cccnc12 | 6.31 |  |  | 
5.80 | CCNC(=O)c1noc(-c2cc(Cl)c(O)cc2O)c1NC1CCN(C)CC1 | < 6.00 |  |  | 
6.77 | CCNC(=O)c1noc(-c2cc(Cl)c(O)cc2O)c1NC(=O)CCN1CCOCC1 | 6.89 |  |  | 
> 8.30 | CCNC(=O)c1noc(-c2cc(C(C)C)c(O)cc2O)c1NC(=O)[C@H]1CC[C@@H](O)CC1 | 6.30 |  |  | 
> 8.30 | CCNC(=O)c1noc(-c2cc(C(C)C)c(O)cc2O)c1NC(=O)[C@H]1CC[C@H](C(N)=O)CC1 | < 6.00 |  |  | 
7.57 | CCNC(=O)c1noc(-c2cc(C(C)C)c(O)cc2O)c1NC(=O)c1sc(-c2ccncc2)nc1C | < 6.00 |  |  | 
7.49 | CCNC(=O)c1noc(-c2cc(C(C)C)c(O)cc2O)c1NC(=O)c1ccc(-n2cccc2)cc1 | < 6.00 |  |  | 
7.59 | CCNC(=O)c1noc(-c2cc(C(C)C)c(O)cc2O)c1NC(=O)c1ccc(OC)cc1 | 7.77 |  |  | 
7.07 | CCNC(=O)c1noc(-c2cc(Cl)c(O)cc2O)c1NC(=O)C(C)(C)C | 6.51 |  |  | 
7.62 | CCNC(=O)c1cc(C(=O)Nc2c(C(=O)NCC)noc2-c2cc(C(C)C)c(O)cc2O)on1 | < 6.00 |  |  | 
6.92 | CCNC(=O)c1noc(-c2cc(C(C)C)c(O)cc2O)c1NC(=O)CCN1CCN(C)CC1 | < 6.00 |  |  | 
